Assay [1] has as its target T1, human NLRP3 (Homo sapiens (Human), UniProt Q96P20). Nature of the assay: Human Whole Blood (hWB) NLRP3 Assay (LPS/ATP, IL-1β). Format: cell-based.
Assay [2] has as its target T1, human NLRP3. Nature of the assay: Scintillation Proximity (SPA) NLRP3 Assay: displacement of 3H-MCC950. The assay is classed as binding. Particulars: read-out: SPA IC50.
The target of assay [3] is T1, human NLRP3. Nature of the assay: Human PBMC NLRP3 Assay (LPS priming, ATP stimulation, cytokine measurement). The assay is classed as cell-based. Particulars: for IC50: read-out: PBMC IC50.
[4] abbreviates: hWB IC50, human whole blood, LPS/ATP, IL-1β.
Setting [5] is: human PBMC, LPS priming, ATP stimulation.

The text below walks through data of patent US20260007684A1, “AMIDE DERIVATIVES FOR INHIBITING NLRP3 AND USES THEREOF” (Ventus Therapeutics U.S., Inc., priority 2023, published 2026).

Some results are limits rather than exact numbers.

T1 sequence (Q96P20 whole entry): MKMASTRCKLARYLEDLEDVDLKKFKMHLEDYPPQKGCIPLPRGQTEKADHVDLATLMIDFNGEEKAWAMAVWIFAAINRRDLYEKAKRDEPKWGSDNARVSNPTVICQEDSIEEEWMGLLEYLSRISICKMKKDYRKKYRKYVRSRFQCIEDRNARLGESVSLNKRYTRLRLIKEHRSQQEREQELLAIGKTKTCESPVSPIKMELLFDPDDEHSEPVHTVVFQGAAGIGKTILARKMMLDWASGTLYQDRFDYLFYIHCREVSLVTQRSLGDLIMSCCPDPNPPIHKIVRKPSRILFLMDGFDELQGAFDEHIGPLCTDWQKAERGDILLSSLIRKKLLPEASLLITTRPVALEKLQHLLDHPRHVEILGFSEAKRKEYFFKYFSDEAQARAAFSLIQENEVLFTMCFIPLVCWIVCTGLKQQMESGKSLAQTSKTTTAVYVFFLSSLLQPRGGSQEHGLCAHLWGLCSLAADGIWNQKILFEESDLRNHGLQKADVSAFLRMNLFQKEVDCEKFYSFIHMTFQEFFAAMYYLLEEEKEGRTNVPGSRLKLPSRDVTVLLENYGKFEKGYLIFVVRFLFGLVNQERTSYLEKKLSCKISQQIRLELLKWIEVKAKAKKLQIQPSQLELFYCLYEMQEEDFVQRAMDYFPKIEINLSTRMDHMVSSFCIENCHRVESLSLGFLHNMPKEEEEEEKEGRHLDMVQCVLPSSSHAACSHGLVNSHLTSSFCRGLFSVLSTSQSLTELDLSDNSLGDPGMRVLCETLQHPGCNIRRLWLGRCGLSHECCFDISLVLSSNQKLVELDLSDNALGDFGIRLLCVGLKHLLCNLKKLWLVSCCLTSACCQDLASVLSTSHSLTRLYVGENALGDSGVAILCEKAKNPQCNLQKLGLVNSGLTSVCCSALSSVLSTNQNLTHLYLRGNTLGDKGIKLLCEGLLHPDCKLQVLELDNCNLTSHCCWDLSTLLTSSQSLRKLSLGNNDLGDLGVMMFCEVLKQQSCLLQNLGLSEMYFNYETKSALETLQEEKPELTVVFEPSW

With `C[C@@H]1C[C@H](NC(=O)C2(c3ccc(OC(F)F)cc3O)CC2)[C@H]2CC[C@@H]1N2c1nnn[nH]1` [43B*, N-((1R,2S,4R,5S)-4-methy1-8-(1H-tetrazol-5-yl)-8-azabicyclo[3.2.1]octan-2-yl)-1-(4-(difluoromethoxy)-2-hydroxyphenyl)cyclopropane-1-carboxamide], the IC50 on human NLRP3 [1] (human whole blood, LPS/ATP, IL-1β, read-out: hWB IC50) was above 3000 nM; at human NLRP3 [2] (displacement of 3H-MCC950) it was below 1000 nM.
Turning to `C[C@@H]1C[C@H]2CC[C@@H]([C@H](NC(=O)C3(c4ccc(C(F)(F)F)cc4)CC3)C1)N2c1nnn[nH]1` [104C*, N-((1S,2R,4S,6R)-4-methyl-9-(1H-tetrazol-5-yl)-9-azabicyclo[4.2.1]nonan-2-yl)-1-(4-(trifluoromethyl)phenyl)cyclopropane-1-carboxamide], the IC50 at human NLRP3 [1] (setting [4]) and at human NLRP3 [2] (displacement of 3H-MCC950) was below 1000 nM each time.
As for `C[C@H]1CC[C@H](NC(=O)C2(c3ccc(Cl)cc3O)CC2)CN(c2nnn[nH]2)C1` (single isomer, unassigned) [90B*], the IC50 is 10 to 100 nM on human NLRP3 [3] (setting [5]) and below 1000 nM on human NLRP3 [2] (displacement of 3H-MCC950).
In the case of `C[C@@H]1CCN(c2nnn[nH]2)C[C@@H](NC(=O)C2(c3ccc(OC(F)F)cc3O)CC2)C1` (single isomer, unassigned) [70B*], the IC50 on human NLRP3 [3] (setting [5]) was 10 to 100 nM; on human NLRP3 [2] (displacement of 3H-MCC950) it was below 1000 nM.
As to `CN(C(=O)C1(c2ccc(Cl)cc2)CC1)c1cccc(-c2nnn[nH]2)c1` [Comparative Example B2, N-(3-(1H-tetrazol-5-yl)phenyl)-1-(4-chlorophenyl)-N-methylcyclopropane-1-carboxamide, reference compound], the IC50 is above 50000 nM on human NLRP3 [1] (read-out: hWB IC50) and 200000 nM at human NLRP3 [2].
In the case of `C[C@@H]1CCN(c2nnn[nH]2)C[C@H](NC(=O)C2(c3cc(F)c(C(F)(F)F)cc3F)CC2)C1` (single isomer, unassigned) [7A*, 1-(2,5-difluoro-4-(trifluoromethyl)phenyl)-N-(5-methyl-1-(1H-tetrazol-5-yl)azepan-3-yl)cyclopropane-1-carboxamide], the IC50 at human NLRP3 [3] (setting [5]) was 10 to 100 nM; on human NLRP3 [2] (displacement of 3H-MCC950) it was below 1000 nM.
On to `CC1(C)C[C@@H](NC(=O)C2(c3ccc(Cl)cc3O)CC2)CN(c2nnn[nH]2)C1` (single isomer, unassigned) [42A*], for which the IC50 at human NLRP3 [3] (setting [5]) is below 10 nM; on human NLRP3 [3], 5.8 nM; at human NLRP3 [2] (displacement of 3H-MCC950) it was below 1000 nM; on human NLRP3 [2], 47 nM.
In the case of `C[C@@H]1C[C@@H](NC(=O)C2(c3ccc(OC(F)F)cc3F)CC2)[C@H]2CC[C@@H]1N2c1nnn[nH]1` (stereo in doubt) [Compound 101A, 1-(4-(difluoromethoxy)-2-fluorophenyl)-N-(4-methyl-8-(1H-tetrazol-5-yl)-8-azabicyclo[3.2.1]octan-2-yl)cyclopropane-1-carboxamide], the IC50 against human NLRP3 [1] (setting [4]) and on human NLRP3 [2] (displacement of 3H-MCC950) was below 1000 nM throughout.
For the compound `C[C@@H]1CCN(c2nnn[nH]2)C[C@H](NC(=O)C2(c3ccc(C(F)F)cc3O)CC2)C1` (single isomer, unassigned) [30A*, 1-(4-(difluoromethyl)-2-hydroxyphenyl)-N-(5-methyl-1-(1H-tetrazol-5-yl)azepan-3-yl)cyclopropane-1-carboxamide], the IC50 was below 10 nM at human NLRP3 [3] (setting [5]) and below 1000 nM at human NLRP3 [2] (displacement of 3H-MCC950).
The like results for `C[C@@H]1CCN(c2nnn[nH]2)C[C@H](NC(=O)C2(c3ccc(C(F)(F)F)c(OC(F)F)c3)CC2)C1` (single isomer, unassigned) [54A*] were, in that order, 10 to 100 nM and below 1000 nM.
As to `C[C@@H]1CCN(c2nnn[nH]2)C[C@H](NC(=O)C2(c3ccc(OC(F)F)cc3O)CC2)C1` (single isomer, unassigned) [70A*], the concentration for half-maximal inhibition (IC50) at human NLRP3 [3] (setting [5]) is below 10 nM; at human NLRP3 [2] (displacement of 3H-MCC950), below 1000 nM.
The like results for `C[C@H]1CCN(c2nnn[nH]2)C[C@H](NC(=O)C2(c3ccc(Cl)c(F)c3O)CC2)C1` (single isomer, unassigned) [18C*, 1-(4-chloro-3-fluoro-2-hydroxyphenyl)-N-(5-methyl-1-(1H-tetrazol-5-yl)azepan-3-yl)cyclopropane-1-carboxamide] were, in that order, 100 to 500 nM and 10000 to 50000 nM.
The like results for `C[C@@H]1CCN(c2nnn[nH]2)C[C@H](NC(=O)C2(c3ccc(C(F)F)cc3)CC2)C1` (single isomer, unassigned) [5A*, 1-(4-(difluoromethyl)phenyl)-N-(5-methyl-1-(1H-tetrazol-5-yl)azepan-3-yl)cyclopropane-1-carboxamide] were, in that order, 10 to 100 nM and below 1000 nM.
Consider `C[C@@H]1CCN(c2nnn[nH]2)C[C@H](NC(=O)C2(c3ccc(Cl)c(F)c3)CC2)C1` (single isomer, unassigned) [65A*], for which the IC50 on human NLRP3 [3] (setting [5]) is 10 to 100 nM; at human NLRP3 [2] (displacement of 3H-MCC950), below 1000 nM.
With `C[C@@H]1CCN(c2nnn[nH]2)C[C@H](NC(=O)C2(c3ccc(C4CC4)cc3)CC2)C1` (single isomer, unassigned) [2A*], the IC50 on human NLRP3 [3] (setting [5]) is 10 to 100 nM; at human NLRP3 [2] (displacement of 3H-MCC950), below 1000 nM.
In the case of `Cc1ccc(C2(C(=O)N[C@@H]3C[C@H](C)CCN(c4nnn[nH]4)C3)CC2)cc1` (single isomer, unassigned) [71A*], the IC50 on human NLRP3 [3] (setting [5]) is 10 to 100 nM; at human NLRP3 [2] (displacement of 3H-MCC950) it was below 1000 nM.
The like results for `O=C(NC1CC(C(F)(F)F)CCN(c2nnn[nH]2)C1)C1(c2ccc(Cl)cc2)CC1` (racemic) [Rac-1, 1-(4-chlorophenyl)-N-[1-(1H-1,2,3,4-tetrazol-5-yl)-5-(trifluoromethyl)azepan-3-yl]cyclopropane-1-carboxamide] were, in that order, 100 to 500 nM and below 1000 nM.
On to `C[C@@H]1CCN(c2nnn[nH]2)C[C@H](NC(=O)C2(c3ccc(C4CC4)c(F)c3O)CC2)C1` (single isomer, unassigned) [32A*, 1-(4-cyclopropyl-3-fluoro-2-hydroxyphenyl)-N-(5-methyl-1-(1H-tetrazol-5-yl)azepan-3-yl)cyclopropane-1-carboxamide], for which the values for the IC50 on human NLRP3 [3] (setting [5]) and at human NLRP3 [2] (displacement of 3H-MCC950) were below 10 nM and below 1000 nM, respectively.
The like results for `C[C@H]1CCN(c2nnn[nH]2)C[C@@H](NC(=O)C2(c3ccc(OC(F)F)cc3O)CC2)C1` (single isomer, unassigned) [70D*] were, in that order, 10 to 100 nM and below 1000 nM.
The like results for `C[C@@H]1CCN(c2nnn[nH]2)C[C@H](NC(=O)C2(c3ccc(C(F)(F)F)cc3F)CC2)C1` (single isomer, unassigned) [68A*] were, in that order, below 10 nM and below 1000 nM.
The like results for `C[C@@H]1CCN(c2nnn[nH]2)C[C@H](NC(=O)C2(c3ccc(OC(F)F)c(F)c3)CC2)C1` (single isomer, unassigned) [73A*] were, in that order, 10 to 100 nM and below 1000 nM.
On to `O=C(N[C@H]1CCCN(c2ccccc2)C1)c1ccc(Cl)cc1` [Comparative Example J2, (S)-4-chloro-N-(1-phenylpiperidin-3-yl)benzamide, reference compound], for which the IC50 at human NLRP3 [3] was above 100000 nM.
As for `C[C@@H]1CCN(c2nnn[nH]2)C[C@@H](NC(=O)C2(c3ccc(C(F)F)cc3O)CC2)C1` (single isomer, unassigned) [30B*, 1-(4-(difluoromethyl)-2-hydroxyphenyl)-N-(5-methyl-1-(1H-tetrazol-5-yl)azepan-3-yl)cyclopropane-1-carboxamide], the IC50 was 10 to 100 nM on human NLRP3 [3] (setting [5]) and below 1000 nM on human NLRP3 [2] (displacement of 3H-MCC950).
The like results for `C[C@@H]1CCN(c2nnn[nH]2)C[C@H](NC(=O)C2(c3ccc(Cl)cc3Cl)CC2)C1` (single isomer, unassigned) [55A*] were, in that order, 10 to 100 nM and below 1000 nM.
For `C[C@@H]1CCN(c2nnn[nH]2)C[C@@H](NC(=O)C2(c3ccc(C(F)(F)F)c(F)c3O)CC2)C1` (single isomer, unassigned) [31B*, 1-(3-fluoro-2-hydroxy-4-(trifluoromethyl)phenyl)-N-(5-methyl-1-(1H-tetrazol-5-yl)azepan-3-yl)cyclopropane-1-carboxamide], the IC50 at human NLRP3 [3] (setting [5]) is 10 to 100 nM; at human NLRP3 [2] (displacement of 3H-MCC950), below 1000 nM.
On to `C[C@@H]1CCN(c2nnn[nH]2)C[C@H](NC(=O)C2(c3ccc(Cl)c(F)c3F)CC2)C1` (single isomer, unassigned) [4A*, 1-(4-chloro-2,3-difluorophenyl)-N-(5-methyl-1-(1H-tetrazol-5-yl)azepan-3-yl)cyclopropane-1-carboxamide], for which the results for the IC50 on human NLRP3 [3] (setting [5]) and on human NLRP3 [2] (displacement of 3H-MCC950) were 10 to 100 nM and below 1000 nM, respectively.
For the compound `O=C(N[C@@H]1CCCN(c2nnn[nH]2)C1)C1(c2ccc(Cl)cc2F)CC1` [Compound 105, (R)-N-(1-(1H-tetrazol-5-yl)piperidin-3-yl)-1-(4-chloro-2-fluorophenyl)cyclopropane-1-carboxamide], the IC50 on human NLRP3 [3] (setting [5]) was above 500 nM; at human NLRP3 [3], 850 nM. Moreover, on human NLRP3 [3] (relative to Compound 10A), the “fold increase in potency as measured by PBMC IC50” value came to 2.5 fold.
Consider `O=C(N[C@@H]1CCCN(c2nnn[nH]2)C1)c1ccc(Cl)cc1` [Comparative Example G, (R)-N-(1-(1H-tetrazol-5-yl)piperidin-3-yl)-4-chlorobenzamide, reference compound], for which the IC50 at human NLRP3 [3] is above 100000 nM.
Consider `C[C@@H]1CCN(c2nnn[nH]2)C[C@H](NC(=O)C2(c3ccc(SC(F)(F)F)cc3)CC2)C1` (single isomer, unassigned) [69A*], for which the figures for the IC50 on human NLRP3 [3] (setting [5]) and at human NLRP3 [2] (displacement of 3H-MCC950) were 10 to 100 nM and below 1000 nM, respectively.
Take `C[C@H]1CCN(c2nnn[nH]2)C[C@@H](NC(=O)C2(c3ccc(Cl)c(F)c3O)CC2)C1` (single isomer, unassigned) [18D*, 1-(4-chloro-3-fluoro-2-hydroxyphenyl)-N-(5-methyl-1-(1H-tetrazol-5-yl)azepan-3-yl)cyclopropane-1-carboxamide]: the IC50 on human NLRP3 [3] (setting [5]) is 100 to 500 nM; at human NLRP3 [2] (displacement of 3H-MCC950), below 1000 nM.
The like results for `C[C@@H]1CCN(c2nnn[nH]2)C[C@H](NC(=O)C2(c3ccc(OC(F)F)cc3F)CC2)C1` (single isomer, unassigned) [3A*] were, in that order, 10 to 100 nM and below 1000 nM.
For the compound `O=C(Cc1ccc(Cl)cc1)N[C@@H]1CCCN(c2nnn[nH]2)C1` [Comparative Example H, (R)-N-(1-(1H-tetrazol-5-yl)piperidin-3-yl)-2-(4-chlorophenyl)acetamide, reference compound], the concentration for half-maximal inhibition (IC50) at human NLRP3 [3] worked out at 10500 nM.
